Experimental data: patent US11421006B2, “T cell epitopes from Cockroach and methods of making and using same” (LA JOLLA INSTITUTE FOR ALLERGY AND IMMUNOLOGY, priority 2012, dated 2022)
“And” between values parts separate entries of the source, which are not always exact repeats. Equal entries are not always repeated.

System: Bla g-specific T cells (PBMC)
Assay: ELISPOT assays: IL-5, IFN-γ and IL-10 production by in vitro expanded PBMC of Cockroach-allergic donors
Assay type: cell-based, human
Conditions: for IFNγ / IL-5: individual peptide, one line per responding donor; for POST-SIT IFNg / POST-SIT IL-5 / POST-SIT IL-10: 6 months after initiation of SIT; for Total SFCs: IL-5 plus IFN-γ, summed over responding donors; for PRE-SIT IL-5 / PRE-SIT IL-10 / PRE-SIT IFNg: before SIT; for PRE-SIT IFNg: one line per donor/peptide; for Cumulative Response: cumulative over regions ranked by total SFCs; for Donors Responding: number of allergic donors (34 tested) with T cell response to the region; for % Total Response: share of total Bla g specific response
Protocol: In vitro expansion of Bla g-specific T cells: PBMC were cultured in RPMI 1640 (V Scientific, Tarzana, Calif.) supplemented with 5% human serum (Cellgro, Herndon, Va.) at a density of 2×10^6 cells/ml in 24-well plates (BD Biosciences, San Jose, Calif.) and stimulated with 25 μg/ml German Cockroach (Blatella germanica; Bla g) extract (Greer, Lenoir, N.C.), or individual peptides. […] On day 14, cells were harvested and screened for reactivity against Bla g-specific peptide pools or individual peptides. ELISPOT assays: The production of IL-5, IFN-γ, and IL-10 was analyzed in ELISPOT assays. […] Cells were then incubated at a density of 1×10^5/well either with peptide pools or individual peptides (10 μg/ml), German Cockroach extract (25 μg/ml), PHA (10 μg/ml), or medium (containing 1% DMSO corresponding to the percentage of DMSO in the pools/peptides) as a control. […] Louis, Mo.). Spots were counted by computer-assisted image analysis (Zeiss, KS-ELISPOT reader, Munich, Germany). Each assay was performed in triplicate. The level of statistical significance was determined with a Student's t-test using the mean of triplicate values of the response against relevant pools or individual peptides versus the response against the DMSO control.

Sequence | IFNγ | IL-5 | POST-SIT IFNg [SFC/10^6] | POST-SIT IL-5 [SFC/10^6] | POST-SIT IL-10 [SFC/10^6] | Total SFCs [SFCs] | PRE-SIT IL-5 [SFC/10^6] | PRE-SIT IL-10 [SFC/10^6] | PRE-SIT IFNg [SFC/10^6] | Cumulative Response [%] | Donors Responding | % Total Response [%] | T cell response pattern (IL-5 / IFN-γ), in words
EVVKANGGYLAAGKL (listed as Blattella germanica) | 80 SFC and 380 SFC | 467 SFC and 0 SFC |  |  |  |  |  |  |  |  |  |  | 
PEFQSIVQTLNAMPEYQNLL (listed as Blattella germanica) [Region 3, Bla g 1 position 40] |  |  | 0 | 0 | 0 | 327 | 87 | 0 | 153 | 93.2 | 2 | 1.3 | 
HMAKEDLVANQPNLK (listed as Blattella germanica) | 610 SFC | 273 SFC |  |  |  |  |  |  |  |  |  |  | 
SMPFGKTPVLEIDGK (listed as Blattella germanica) [Region 11, Bla g 5 position 46] | 57 SFC and 250 SFC | 0 SFC and 567 SFC |  |  |  | 874 |  |  |  | 83.4 | 2 | 3.6 | 
GNQNFLTVFDSTSCN (listed as Blattella germanica) [Region 7, Bla g 2 position 46] | 55 SFC | 0 SFC |  |  |  | 55 |  |  |  | 99.6 | 1 | 0.2 | only associated with IFN-γ production
ALREKVLGLPAIKAW (listed as Blattella germanica) | 843 SFC and 100 SFC and 0 SFC and 183 SFC and 147 SFC and 1690 SFC | 0 SFC (3×) and 267 SFC and 380 SFC and 1087 SFC |  |  |  |  |  |  |  |  |  |  | 
IVQTLNAMPEYQNLL (listed as Blattella germanica) | 153 SFC | 87 SFC |  |  |  |  |  |  |  |  |  |  | 
EQISVLRKAFDAFDR (listed as Blattella germanica) | 0 SFC | 340 SFC |  |  |  |  |  |  |  |  |  |  | 
GEPIRFLLSYGEKDF (listed as Blattella germanica) | 205 SFC | 0 SFC |  |  |  |  |  |  |  |  |  |  | 
FLLSYGEKDFEDYRF (listed as Blattella germanica) | 0 SFC (2×) and 77 SFC and 127 SFC | 1537 SFC and 0 SFC and 203 SFC and 193 SFC |  |  |  |  |  |  |  |  |  |  | 
PEFQSIVQTLNAMPE (listed as Blattella germanica) | 87 SFC | 0 SFC |  |  |  |  |  |  |  |  |  |  | 
MVGTILEMLGHRLDD (listed as Blattella germanica) [Region 24, Bla g 6 position 31] | 0 SFC | 50 SFC | 0 | 0 | 0 | 317 | 50 | 0 | 0 | 95.8 | 2 | 1.3 | 
EFVTLAAKFIIEEDS (listed as Blattella germanica) [Region 19, Bla g 6 position 71] | 0 SFC | 443 SFC |  |  |  | 443 |  |  |  | 91.8 | 1 | 1.8 | 
LRKAFDAFDREKSGS (listed as Blattella germanica) | 90 SFC | 327 SFC |  |  |  |  |  |  |  |  |  |  | 
FAVATITHAAELQRV (listed as Blattella germanica) [Region 5, Bla g 2 position 11] | 855 SFC | 0 SFC |  |  |  | 855 |  |  |  | 86.9 | 1 | 3.5 | only associated with IFN-γ production
MVGTILEMLGTRLDQ (listed as Blattella germanica) | 0 SFC | 267 SFC |  |  |  |  |  |  |  |  |  |  | 
PLYKLVHVFINTQYA (listed as Blattella germanica) [Region 6, Bla g 2 position 26] | 240 SFC | 0 SFC |  |  |  | 240 |  |  |  | 97.8 | 1 | 1.0 | 
HFFIGDFFVDHYYSE (listed as Blattella germanica) [Region 9, Bla g 2 position 321] | 250 SFC | 0 SFC |  |  |  | 250 |  |  |  | 96.8 | 1 | 1.0 | 
VLGLPAIKAWVAKRP (listed as Blattella germanica) | 50 SFC and 73 SFC | 0 SFC and 133 SFC |  |  |  |  |  |  |  |  |  |  | 
EAMEKELREAFRLYD (listed as Blattella germanica) [Region 21, Bla g 6 position 86] | 0 SFC | 53 SFC |  |  |  | 53 |  |  |  | 99.8 | 1 | 0.2 | 
PELQNFLNFLEANGL (listed as Blattella germanica) [Region 4, Bla g 1 position 281] | 323 SFC | 0 SFC |  |  |  | 323 |  |  |  | 94.5 | 1 | 1.3 | 
FETIVVTVDSLPEFK (listed as Blattella germanica) [Region 1, Bla g 1 position 351] | 167 SFC | 0 SFC |  |  |  | 167 |  |  |  | 98.5 | 1 | 0.7 | 
GYITTNVLREILKEL (listed as Blattella germanica) [Region 25] | 0 SFC | 50 SFC | 0 | 0 | 0 | 50 | 50 | 0 | 0 | 100.0 | 1 | 0.2 | 
PEQIQLLKKAFDAFD (listed as Blattella germanica) [Region 23, Bla g 6 position 6] | 0 SFC | 1172 SFC and 73 SFC |  |  |  | 1245 |  |  |  | 66.6 | 2 | 5.1 | only IL-5 production
SGTVDFDEFMEMMTG (listed as Blattella germanica) [Region 22, Bla g 6 position 140] | 0 SFC | 57 SFC |  |  |  | 57 |  |  |  | 99.4 | 1 | 0.2 | 
EEFVSLASRFLVEED (listed as Blattella germanica) | 220 SFC | 0 SFC |  |  |  |  |  |  |  |  |  |  | 
ISSQYYIQQNGNLCY (listed as Blattella germanica) [Region 8, Bla g 2 position 296] | 153 SFC | 0 SFC |  |  |  | 153 |  |  |  | 99.1 | 1 | 0.6 | 
